We go through one molecule from patent publication US20060046972A1, “Cytotoxic nucleoside analog compound 003 for treating cancer” (Parker Hughes Institute, priority 2004, published 2006).

Molecules are shown by their SMILES.

In data set [1] the test system is DU145 prostate cancer cells. The data set can be described thus: Confocal laser scanning microscopy of mitotic spindle, DU145. Type of data set: cell-based, human. The conditions noted are these: 100 μM. The procedure:
Immunofluorenscence was used to examine the spindle features of human cancer cell lines treated with Compound 003 or 0.5% DMSO. Initially, cells at log phase were seeded onto sterile 22 mm coverslips in six -well culture plates. 24 hours later, the cells were treated with compound 003 for 2 hours at 37° C., 5% C02, fixed in methanol (−20° C. 15 min) followed by a 15 minute incubation with PBS +0.1.% Tx-100. The coverslips were incubated with antibodies raised against α-tubulin, γ-tubulin (Sigma Chemical Co., St Louis, Mo.) (40 min 37° C.), washed in PBS-Tx-100, and incubated with an appropriate secondary antibody conjugated to FITC (Jackson ImmunoResearch, Westgrove, Pa.). Cellular DNA was labeled with 5 μM TOTO3 (Molecular Probes, Eugene, Oreg.) for 20 minutes. Coverslips were immediately inverted onto slides in Vectashield (Vector Labs, Burlingame, Calif.) to prevent photobleaching, sealed with nail varnish and stored at −20° C. The slides were examined using a Bio-Rad MRC-1024 Laser Scanning Confocal Microscope equipped with a Kr/Ar laser (BioRad, Hercules, Calif.) mounted on a Nikon Eclipse E800 upright microscope with high numerical aperture objectives (Nikon, Melville, N.Y.). Digital data were processed using Lasersharp (BioRad) and Adobe Photoshop software (Adobe Systems, Mountain View, Calif.). […]

The test system of data set [2] is DAUDI, human Burkitt's lymphoma. The data set can be described thus: DNA flow cytometry of cell cycle arrest, DAUDI. Type of data set: cell-based. The conditions noted are these: 100 μM, 48 hour. The method, then:
(§1) Exponentially growing tumor cells were cultured at 1×10^6 cells/ml in clonogenic medium (RPMI 1640 medium +1% penicillin/streptomycin +10% heat-inactivated fetal bovine serum, 2 mML-glutamine, and 10 mM Hepes buffer) in the presence or absence of 100 μM compound 003 for 48 hour at 37° C., 5% CO2. At 48 h, cells were washed two times in fresh clonogenic medium, trypsinized, fixed in ice cold ethanol and labeled with propidium iodide to quantify their DNA content, as described previously (See, for example, Navara, et al., 2001, Anticancer Drugs. 12:369). Quantitative DNA analysis was performed on a Becton Dickenson Calibur flow cytometer equipped with a Consort 40 computer using the COTFIT program, which includes CELLCY, a cell cycle distribution function that fits DNA content histograms and calculates-the percentages of cells in G, S, and GM phases of the cell cycle, as described, for example, in Uckun et al., 1996, J Biol Chem. 271, 6389.

In data set [3] the test system is human T leukemia/lymphoma (JURKAT). Kind of data set: DNA flow cytometry of cell cycle arrest, JURKAT. The conditions noted are these: 100 μM, 48 hour. Type of data set: cell-based. The method, then: as §1
Data set [4] can be described thus: Acute toxicity of intraperitoneal bolus doses in CD-1 mice. In kind it is in vivo. The conditions noted are these: female, CD-1, mouse, in vivo, ip; single i.p. bolus; not reached at highest dose. The procedure: 1.2.8 Animals Female CD-1 mice (Body weight: ˜25 g; Age: 7 week old) were purchased, from Charles River Laboratories (Willmington, Mass., USA). MMTV Neu-mice [FVB/N-TgN(MMTV neu)202MUL; Jackson Laboratory, Bar Harbor, Me.] were bred to produce multiple litters. All mice were housed in microisolator cages (Lab Products, Inc., Maywood, N.Y., USA) containing autoclaved bedding in a controlled specific pathogen-free (SPF) environment (12-h light/12-h dark photoperiod, 22±1° C., 60±10% relative humidity), which is fully accredited by the USDA (United States Department of Agriculture). Adult male Lewis rats (Body weight: ˜160 g) were obtained from the specific pathogen-free (SPF) breeding facilities of Harlan Sprague Dawley (Indianapolis, Id., USA) at 14 weeks of age. All husbandry and experimental contact made with the mice and rats maintained SPF conditions. The rats were kept in microisolater cages (Allentown Caging Equipment Co., Inc., Allentown, N.J., USA) containing autoclaved food, water, and bedding. Animal studies were approved by Parker Hughes Institute Animal Care and Use Committee and all animal care procedures 1.5 conformed to the Guide for the Care and Use of Laboratory Animals (National Research Council, National Academy Press, Washington D.C. 1996, USA).
The toxicity profile of Compound 003 in CD-1 mice and Lewis rats was examined, using standard procedures as previously reported for other experimental drugs (Uckun, et al., 2003, Arzneimittelforschun. 53:357; Uckun, et al., 2002, Clin Cancer Res. 8: 1224; Uckun, et al., 2002, Antimicrob Agents Chemother. 46:3428). In brief, mice and rats were treated with intraperitoneal injections of vehicle or Compound 003 at multiple dose levels. Compound 003 was administered as a 0.2 mL (for mice) or 0.5 mL (for rats) bolus injection containing 10% DMSO as a vehicle. Animals were allowed free access to autoclaved standard pellet food and tap water throughout the experiments and monitored daily for morbidity and mortality. Animals were electively sacrificed on day 7 or day 30 to determine the toxicity of Compound 003 by examining their blood chemistry profiles, blood counts, and evaluating multiple organs for the presence of toxic lesions. Blood was collected by intracardiac puncture following anesthesia with ketamine:xylazine and immediately heparinized. The blood chemistry profiles were examined using a Synchron CX5CE Chemical Analyzer (Beckman Instruments, Inc., Fullerton, Calif., USA). Blood counts (red blood cells [RBC], white blood cells [WBC] and platelets [Plt]) were determined using a HESKA Vet ABC-Diff Hematology Analyzer (HESKA Corporation, Fort Collins, Colo., USA). Absolute neutrophil counts (ANC) and absolute lymphocyte counts (ALC) were calculated from WBC values after determining the percentages of neutrophils and lymphocytes by a manual differential count. At the time of necropsy, […] from mice (bone, bone marrow, brain, cecum, heart, kidney, large intestine, liver, lung, lymph node, ovary, pancreas, skeletal muscle, skin, small intestine, spleen, stomach, thymus, thyroid gland, urinary bladder, and uterus, as available) and 21 different tissues from rats (bone, bone marrow, brain, coagulating gland, epididymis, heart, large intestine, small intestine, kidney, liver, lung, pancreas, peripheral nerve/spinal nerve, skeletal muscle, skin, spinal cord, spleen, stomach, testes, thymus, urinary bladder) were collected within 15 minutes after sacrifice, gross pathological findings were documented, organs were preserved in 10% neutral phosphate buffered formalin, and processed for histopathological examination. For histopathologic studies, formalin fixed tissues were dehydrated and embedded in paraffin by routine methods. Glass slides with affixed 4-5 micron tissue sections were prepared and stained with Hemotoxylin and Eosin (H&E). […]

The nature of data set [5]: Stability in simulated intestinal fluid. In kind it is in vitro ADME. The method, then: Plasma samples, simulated gastric fluid and intestinal fluids (United State Pharmacopeia XXII methods) were separately spiked with COMPOUND 003 to yield final concentrations of 500 μM. Spiked samples were incubated at 37° C. At a predetermined time (5, 10, 15, 30 60 and 120 minutes), an aliquot (200 μl) of the spiked plasma sample was extracted as described above.

Consider `COC(=O)C(C)NP(=O)(OCC1OC(n2cc(C)c(=O)[nH]c2=O)CC1N=[N+]=[N-])Oc1ccc(OC)cc1` (stereo not drawn) [Compound 003, 3′-azidothymidine 5′-[p-methoxyphenylmethoxyalaninyl phosphate]], for which the mitotic spindle formation entry in data set [1] is given as “induced aberrant multipolar spindle formation”. Also, the cell cycle arrest result in data set [2] is listed as “caused G2 arrest”; in data set [3] it was “G2M cell cycle arrest”. Also, the median lethal dose (LD50) in data set [4] is > 80 mg/kg. Further, the decomposition product result in data set [5] (intestinal fluid) was “decomposed to form ala-AZT-MP”. The stability entry in data set [5] (simulated intestinal fluid, 500 μM, 37° C.) is reported as “unstable”.
